The numbers were not newly measured in patent US20260232695A1, “ORAL FORMULATIONS OF ABIRATERONE ACETATE AND METHOD OF MANUFACTURING THEREOF” (BDR PHARMACEUTICALS INTERNATIONAL PRIVATE LIMITED, priority 2022, published 2026), which cites them from elsewhere.

For this series the following is noted: poor solubility in water and lower lipid permeability.

For the compound `CC(=O)O[C@H]1CC[C@@]2(C)C(=CC[C@@H]3[C@@H]2CC[C@]2(C)C(c4cccnc4)=CC[C@@H]32)C1` [Abiraterone Acetate, 17-(pyridin-3-yl)androsta-5,16-dien-3β-yl acetate], the BCS class entry is on record as “Class IV”.
